Test results reported in patent US7939288B2, “Method for differentiating between factor XIII deficiency states and fibrinogen deficiency states by means of thrombelastographic techniques” (CSL Behring GmbH, priority 2005, dated 2011).

Target: T1, factor XIII (Homo sapiens, UniProt P00488)
T1 construct: The test batch contained: 200 μl of plasma; from tissue; host or cells: standard human plasma
T1 sequence (P00488 39-732 limits assumed): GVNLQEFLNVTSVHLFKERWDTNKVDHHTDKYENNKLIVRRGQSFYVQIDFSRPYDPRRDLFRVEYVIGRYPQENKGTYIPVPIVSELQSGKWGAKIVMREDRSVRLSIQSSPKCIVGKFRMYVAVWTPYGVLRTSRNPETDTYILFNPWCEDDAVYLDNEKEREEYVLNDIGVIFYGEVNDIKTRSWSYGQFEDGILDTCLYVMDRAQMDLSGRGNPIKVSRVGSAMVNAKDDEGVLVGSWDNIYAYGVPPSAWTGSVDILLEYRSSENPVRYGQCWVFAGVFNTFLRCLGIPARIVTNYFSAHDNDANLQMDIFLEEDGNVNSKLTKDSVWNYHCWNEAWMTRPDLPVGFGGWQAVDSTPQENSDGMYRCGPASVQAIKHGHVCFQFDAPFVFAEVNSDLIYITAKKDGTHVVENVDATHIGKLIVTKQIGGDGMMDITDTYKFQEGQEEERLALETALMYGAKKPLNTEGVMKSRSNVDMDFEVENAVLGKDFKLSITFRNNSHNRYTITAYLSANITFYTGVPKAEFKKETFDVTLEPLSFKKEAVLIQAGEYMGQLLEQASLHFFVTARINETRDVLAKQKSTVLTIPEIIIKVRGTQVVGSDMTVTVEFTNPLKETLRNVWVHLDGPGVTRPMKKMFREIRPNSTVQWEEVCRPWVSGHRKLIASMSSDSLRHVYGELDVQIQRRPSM
Experiment: TEG of standard human plasma with low molecular weight factor XIII inhibitors, clotting started by tissue factor reagent (Thromborel S)
Type: biochemical
Procedure: For the quantitative determination of the influence of factor XIII, standard human plasma with or without addition of low molecular weight factor XIII inhibitors was analysed by means of TEG. The clotting reaction was started or accelerated by addition of a tissue factor reagent. The test batch contained: 200 μl of plasma, 30 μl of NaCl soln (control) or inhibitor solution in different dilutions, 50 μl of tissue factor reagent. (Thromborel S, Dade Behring) and 20 μl of calcium chloride solution (200 mmol/l). The reagents were pipetted into the cup at 37° C. and the TEG measurement was started with Haemoscope apparatuses. Alternatively, the calcium chloride can also be already added to the tissue factor reagent and the reaction thus started. The measurement parameters of reaction time (R), alpha angle, maximum amplitude (MA) and time to achieve the maximum amplitude (MA) were determined and evaluated. […] The investigations carried out here with plasma are in principle also applicable to whole blood.

[1] = concentration in the test 0.033 μg/ml, Table 3
[2] = concentration in the test 0.10 μg/ml, Table 3
[3] = concentration in the test 0.33 μg/ml, Table 3
[4] = concentration in the test 1.00 μg/ml, Table 3
[5] = concentration in the test 3.33 μg/ml, Table 3
[6] = concentration in the test 1.07 μg/ml, standard human plasma
[7] = concentration in the test 1.071 μg/ml (so in the source), standard human plasma
[8] = concentration in the test 3.21 μg/ml, standard human plasma
[9] = concentration in the test 3.214 μg/ml (so in the source), standard human plasma
[10] = concentration in the test 10.7 μg/ml, standard human plasma
[11] = concentration in the test 32.1 μg/ml, standard human plasma
[12] = concentration in the test 107 μg/ml, standard human plasma
[13] = concentration in the test 321 μg/ml, standard human plasma
[14] = concentration in the test 0.32 μg/ml, standard human plasma
[15] = concentration in the test 107 μg/ml, standard human plasma, 107 µg/ml in the test
[16] = concentration in the test 321 μg/ml, standard human plasma, 321 µg/ml in the test
[17] = concentration in the test 536 μg/ml, standard human plasma, 536 µg/ml in the test

CC(=O)CSc1n(C)c(C)c(C)[n+]1C.[Cl-] [1,3,4,5-tetramethyl-2-[(2-oxopropyl)thio]imidazolium chloride]
MA (concentration in the test 0.033 μg/ml): 21.5 mm | Angle [1]: 79.6 ° | R [1]: 22.5 s | TMA [1]: 177.5 s | MA (concentration in the test 0.10 μg/ml): 18.5 mm | Angle [2]: 79.0 ° | R [2]: 22.5 s | TMA [2]: 140.0 s | MA (concentration in the test 0.33 μg/ml): 14.9 mm | Angle [3]: 77.0 ° | R [3]: 22.5 s | TMA [3]: 77.5 s | MA (concentration in the test 1.00 μg/ml): 13.1 mm | Angle [4]: 75.4 ° | R [4]: 22.5 s | TMA [4]: 77.5 s | MA (concentration in the test 3.33 μg/ml): 12.4 mm | Angle [5]: 74.0 ° | R [5]: 22.5 s | TMA [5]: 77.5 s

NCCc1c[nH]cn1 [Histamine]
Angle [6]: 73.4 ° | MA [6]: 17.8 mm | R [6]: 20.0 s | TMA [6]: 592.5 s | Angle [7]: 70.3 ° | MA [7]: 14.0 mm | R [7]: 15.0 s | TMA [7]: 492.5 s | Angle [8]: 75.0 ° | MA [8]: 17.9 mm | R [8]: 22.5 s | TMA [8]: 527.5 s | Angle [9]: 71.9 ° | MA [9]: 13.0 mm | R [9]: 25.0 s | TMA [9]: 182.5 s | Angle [10]: 74.8 ° | MA [10]: 19.2 mm | R [10]: 20.0 s | TMA [10]: 622.5 s | Angle [11]: 73.9 ° | MA [11]: 17.2 mm | R [11]: 22.0 s | TMA [11]: 472.5 s | Angle [12]: 73.5 ° | MA [12]: 16.9 mm | R [12]: 17.5 s | TMA [12]: 462.5 s | Angle [13]: 72.7 ° | MA [13]: 15.5 mm | R [13]: 20.0 s | TMA [13]: 430.0 s

CN(C)c1cccc2c(S(=O)(=O)NCCCCCN)cccc12 [Monodansylcadaverine]
Angle [14]: 74.0 ° | MA [14]: 18.1 mm | R [14]: 20.0 s | TMA [14]: 655.0 s | Angle [6]: 74.9 ° | MA [6]: 18.4 mm | R [6]: 22.5 s | TMA [6]: 610.0 s | Angle [8]: 74.7 ° | MA [8]: 19.1 mm | R [8]: 20.0 s | TMA [8]: 657.5 s | Angle [10]: 74.4 ° | MA [10]: 18.4 mm | R [10]: 25.0 s | TMA [10]: 560.0 s | Angle [11]: 74.4 ° | MA [11]: 17.3 mm | R [11]: 17.5 s | TMA [11]: 562.5 s | Angle [15]: 76.9 ° | MA [15]: 18.7 mm | R [15]: 32.5 s | TMA [15]: 237.5 s | Angle [16]: 71.0 ° | MA [16]: 15.1 mm | R [16]: 20.0 s | TMA [16]: 490.0 s | Angle [17]: 70.3 ° | MA [17]: 13.3 mm | R [17]: 27.5 s | TMA [17]: 370.0 s

NCCCCN [Putrescine]
Angle [6]: 73.1 ° | MA [6]: 17.2 mm | R [6]: 22.5 s | TMA [6]: 452.5 s | Angle [7]: 69.5 ° | MA [7]: 13.6 mm | R [7]: 25 s | TMA [7]: 405.0 s | Angle [8]: 73.7 ° | MA [8]: 15.9 mm | R [8]: 17.5 s | TMA [8]: 277.5 s | Angle [9]: 72.6 ° | MA [9]: 13.9 mm | R [9]: 32.5 s | TMA [9]: 327.5 s | Angle [10]: 73.4 ° | MA [10]: 18.7 mm | R [10]: 20.0 s | TMA [10]: 672.5 s | Angle [11]: 73.0 ° | MA [11]: 16.9 mm | R [11]: 25 s | TMA [11]: 585.0 s | Angle [12]: 73.0 ° | MA [12]: 16.5 mm | R [12]: 15 s | TMA [12]: 505.0 s | Angle [13]: 72.8 ° | MA [13]: 15.8 mm | R [13]: 20 s | TMA [13]: 400.0 s
